Experimental data reported in PMC10669052, “Exploring Differences in Pharmacometrics of Rabeprazole between Genders via Population Pharmacokinetic–Pharmacodynamic Modeling” (Biomedicines, 2023).
In brackets after ≈: the same amount, converted by molar mass. Like-named read-outs stand apart in the source and are kept apart here.

Tests used:
clinical = details: for AUC / AUC(0-inf) / AUCextrap / Cmax / MRT / Tmax / Vd/F / half-life: human, in vivo, po
Protocol: Analysis of biochemical parameters was performed on all subjects participating in the clinical trial and the methods are presented in Supplementary Information S1. Information relating to the selection and progress of clinical trial participants is presented in Supplementary Information S2, and information on the clinical trial design and sampling is presented in Supplementary Information S3. The clinical trial protocol was thoroughly reviewed and officially approved (approval number: MB22-002; approved on 15 February 2022) by the Ministry of Food and Drug Safety (Cheongju-si, Republic of Korea). NCA was used to calculate the rabeprazole pharmacokinetic parameters for males and females before a comparison of rabeprazole pharmacokinetics was performed between genders to determine any significant rabeprazole pharmacokinetic parameters in males and females. Pharmacokinetic parameters calculated by NCA were estimated based on plasma concentration values over time after orally administering a 10 mg rabeprazole enteric-coated tablet. Information on the analytical method applied to quantify rabeprazole among plasma samples is briefly presented in Supplementary Information S4, whereas the methods for calculating pharmacokinetic parameters using NCA are presented in Supplementary Information S5. An additional NCA analysis was performed based on the normalized rabeprazole plasma concentration values for body weight, which is one of the major physiological differences between genders that has been frequently applied in past pharmacokinetic comparative studies between genders, and the results were categorized and compared by gender. The significant differences between genders were compared using a two-tailed t test, with significance determined at a p value of 0.05.
43 Supplementary Information 3
45 Clinical trial design and sampling
46 This bioequivalence investigation was performed as randomized, single-dose, open-label,
47 crossover, and two-way studies (with a washout period of 7 days). Prior to the clinical trial,
49 Minneapolis, MN, USA) installed into a vein on the arm or back of the hand, and 6 mL of blank
50 blood was collected. Then, all subjects were orally administered a single 10 mg rabeprazole
51 enteric-coated tablet along with 150 mL of water. Subjects had fasted for more than 10 h before
52 administration. Blood sampling from subjects was performed at a total of 13 specific time
53 points post-dose: Before administration (0 h) and at 1, 2, 2.5, 3, 3.5, 4, 4.5, 5, 5.5, 6, 7, 8, and
54 10 h after oral administration. The sampling method was as follows: To completely remove the
55 heparinized saline solution remaining in the venous catheter during blood collection,
56 approximately 1 mL of blood was collected and discarded each time, and approximately 6 mL
57 of blood was collected and placed in sodium heparinized vacutainer tubes (BD, Franklin Lakes,
58 NJ, USA) with the subject management number and blood collection time written on them.
59 After each blood draw, a saline solution for injection (containing heparin for injection) was
60 administered to prevent the blood remaining in the intravenous catheter from clotting. The
61 collected blood was centrifuged at 3,000 ×g for 10 min in a centrifuge set at 4 °C, and then
62 approximately 1 mL of plasma was taken, transferred to an Eppendorf tube (Eppendorf, […]

[1] = Population pharmacokinetic model (three sequential absorption with Tlag, two-compartment; Phoenix NLME); format: in vivo, human; details: for CL/F: both sexes, human, plasma, oral, 10 mg, read-out: tvCLc/F (typical value, central compartment clearance) (converted)
Protocol: Construction and analysis of the population pharmacokinetic model for rabeprazole were performed using a non-linear mixed effects model approach using Phoenix NLME (version 8.4, Pharsight, Certara Inc., Princeton, NJ, USA) software. An estimation of population pharmacokinetic parameters for rabeprazole was performed using the first-order conditional estimates method with extended least squares estimation (with ŋ–ε interaction). The development of the rabeprazole population pharmacokinetic model was largely performed in two steps. First, a basic structural model was established that could explain the plasma concentration of rabeprazole following its oral administration. This included a number of basic compartments, whether to reflect the lag time (Tlag) associated with rabeprazole oral absorption, the mechanistic structuring involved in the absorption process (including multiple absorption), or the selection of relevant error models to account for residual and IIV. Thus, in establishing the model, the values obtained using the NCA calculations were reflected as the initial parameter values, which accelerated the convergence of the final parameters and enabled its effective modeling. Second, a search was performed for model-applicable effective covariates relevant to the inter-individual rabeprazole pharmacokinetic variation modeling. This was achieved by applying stepwise candidate covariates to the IIVs of the pharmacokinetic parameters reflected in the model. Gender and individual physiological and biochemical factors were considered potential effective covariates and treated as categorical and continuous data, respectively, before application priorities were determined based on the results of the previous correlation screening. Appropriate models for each step were selected and performed using various statistical significance tools derived from Phoenix NLME, including Akaike’s information criterion (AIC), twice the negative log-likelihood (−2LL), and goodness-of-fit (GOF) plots, whereas the significance of the total number of parameters applied to the model (increased or decreased degrees of freedom) was also considered. Significance was determined using a Chi-square distribution p value of 0.05 (for forward selection) and 0.01 (for backward elimination) at −2LL and objective function value (OFV). The adequacy of the rabeprazole population pharmacokinetic model was verified using GOF (including distribution of residuals), visual predictive check (VPC), and bootstrapping processes. Approaches to each tool for model verification are presented in Supplementary Information S6.
The structure of the rabeprazole population pharmacokinetic model can be explained as two compartments, each with three sequential first-order absorption and Tlag values. As for the basic compartments, significant model improvements (−2LL reduction of p < 0.05 and/or 0.01) were confirmed in two-compartment structures rather than in one, whereas the −2LL increased in three- or more compartment structures alongside the total number of parameters. As a result, the plasma rabeprazole concentration profiles could be explained by its distribution in the central and peripheral compartments with two kinetics in the body. Regarding the delayed absorption pattern of rabeprazole during the absorption phase, several structural absorption compartment models have been attempted, such as the Tlag reflection model, the non-sequential two absorption model (having two or more absorption points with consideration of bioavailability), and the sequential absorption model (via the application of two or more absorption rate constant parameters between successive absorption compartments). In addition, mathematical transformation models, such as Weibull absorption, saturation, zero-order, and mean transit time (MTT) have also been attempted. […]

gastric pH = test: Pharmacodynamic model (sigmoid Emax with baseline) of gastric pH versus rabeprazole plasma concentration; format: in vivo, human; details: sigmoid Emax model with baseline fitted to digitized gastric pH vs plasma concentration data
Description: The pharmacodynamic model was established based on rabeprazole plasma concentration-measured drug efficacy information (quantified using Web-plot-digitizer (version 4.6)), according to the rabeprazole exposure. The efficacy of rabeprazole was indicated by changes in gastric pH, which was related to plasma rabeprazole selectively inhibiting H^+/K^+-ATPase in gastric parietal cells, thereby increasing intragastric pH. Pharmacodynamic predictions for rabeprazole were achieved by structuring the effect compartment related to the rabeprazole pharmacokinetic profile in the central compartment. Simply, the change in the plasma pharmacokinetic profile over time after administering rabeprazole is directly related to the change in drug efficacy. Therefore, it could be expanded and implemented as a pharmacodynamic model, whereby the time–drug effect after exposure to rabeprazole can be quantified. The established and validated population pharmacokinetic model structure and parameter values associated with rabeprazole were fixed as representative values of the population before being expanded into a model to predict the pharmacodynamics of rabeprazole. This was conducted to explore the effect of any differences in the absorption rate of rabeprazole between genders.

[2] = final population PK model, Estimate
[3] = population PK model estimate as quoted in text

SMILES: COCCCOc1ccnc(C[S+]([O-])c2nc3ccccc3[nH]2)c1C (centres unmarked) [rabeprazole, Rabeprazole]
- AUC (clinical; both, 10 mg): 432 ± 166 ng·h/mL
- AUC(0-inf) (clinical; both, 10 mg): 456 ± 174 ng·h/mL
- AUCextrap (clinical; both, 10 mg): 5.07 ± 9.42%
- Cmax (clinical; both, 10 mg): 236.57 ± 97.86 ng/mL
- MRT (clinical; both, 10 mg): 4.79 ± 1.7 h
- Tmax (clinical; both, 10 mg): 3.71 ± 1.22 h
- Vd/F (clinical; both, 10 mg): 53.9 ± 27.3 L
- half-life (clinical; both, 10 mg): 1.55 ± 0.54 h
- Tmax (clinical; female): 4.1 ± 1.15 h
- AUC (clinical; female, 10 mg): 424 ± 176 ng·h/mL
- AUC(0-inf) (clinical; female, 10 mg): 453 ± 181 ng·h/mL
- AUCextrap (clinical; female, 10 mg): 4.38 ± 7.82%
- Cmax (clinical; female, 10 mg): 260 ± 113 ng/mL
- MRT (clinical; female, 10 mg): 5.25 ± 1.97 h
- Vd/F (clinical; female, 10 mg): 54.3 ± 38.1 L
- half-life (clinical; female, 10 mg): 1.48 ± 0.64 h
- AUC (clinical; male, 10 mg): 439 ± 161 ng·h/mL
- AUC(0-inf) (clinical; male, 10 mg): 459 ± 172 ng·h/mL
- AUCextrap (clinical; male, 10 mg): 3.84 ± 4.01%
- Cmax (clinical; male, 10 mg): 216 ± 79.6 ng/mL
- MRT (clinical; male, 10 mg): 4.4 ± 1.36 h
- Tmax (clinical; male, 10 mg): 3.38 ± 1.21 h
- Vd/F (clinical; male, 10 mg): 53.5 ± 12.8 L
- half-life (clinical; male, 10 mg): 1.6 ± 0.44 h
- AUCinf (plasma concentrations normalized by body weight) (clinical; single oral 10 mg enteric-coated tablet, NCA, body weight normalized, Total (n = 45), mean ± SD): 7.17 ± 3.34 ng·h/mL/kg
- dKa3dBSA (quantitative correlation value between Ka3 and body surface area) ([1]; Bootstrap (n = 1000) Median): −0.95
- dTlagdGender (quantitative correlation value between Tlag and gender) ([1]; Bootstrap (n = 1000) Median): 0.67
- tvCLp/F (typical value, peripheral compartment clearance) ([1]; Bootstrap (n = 1000) Median): 5.38 L/h
- tvKa1 (first sequential absorption rate constant) ([1]; Bootstrap (n = 1000) Median): 1.89 h⁻¹
- tvKa2 (second sequential absorption rate constant) ([1]; Bootstrap (n = 1000) Median): 2.03 h⁻¹
- tvKa3 (third sequential absorption rate constant) ([1]; Bootstrap (n = 1000) Median): 3.26 h⁻¹
- tvTlag (typical value, lag time) ([1]; Bootstrap (n = 1000) Median): 1.55 h
- tvVc/F (typical value, central compartment distribution volume) ([1]; Bootstrap (n = 1000) Median): 10.06 L
- tvVp/F (typical value, peripheral compartment distribution volume) ([1]; Bootstrap (n = 1000) Median): 11.30 L
- ε (residual error) ([1]; Bootstrap (n = 1000) Median): 0.35
- ω^2CLc/F (inter-individual variability) ([1]; Bootstrap (n = 1000) Median): 0.14
- ω^2Ka1 (inter-individual variability) ([1]; Bootstrap (n = 1000) Median): 0.00
- ω^2Ka2 (inter-individual variability) ([1]; Bootstrap (n = 1000) Median): 0.00
- ω^2Ka3 (inter-individual variability) ([1]; Bootstrap (n = 1000) Median): 1.82
- ω^2Tlag (inter-individual variability) ([1]; Bootstrap (n = 1000) Median): 0.23
- ω^2Vc/F (inter-individual variability) ([1]; Bootstrap (n = 1000) Median): 1.55
- CL/F ([1]; Bootstrap (n = 1000) Median): 424 mL/min
- CL/F [1, 2]: 428 mL/min
- dKa3dBSA (quantitative correlation value between Ka3 and body surface area) [1, 2]: −1.11
- tvCLp/F (typical value, peripheral compartment clearance) [1, 2]: 5.45 L/h
- tvKa1 (first sequential absorption rate constant, dosing depot–depot 1) [1, 2]: 1.91 h⁻¹
- tvKa2 (second sequential absorption rate constant, depot 1–depot 2) [1, 2]: 2.43 h⁻¹
- tvKa3 (third sequential absorption rate constant, depot 2–central compartment) [1, 2]: 3.34 h⁻¹
- tvTlag (typical value, lag time) [1, 2]: 1.56 h
- tvVc/F (typical value, central compartment distribution volume) [1, 2]: 10.31 L
- tvVp/F (typical value, peripheral compartment distribution volume) [1, 2]: 11.46 L
- ω^2CLc/F (inter-individual variability) [1, 2]: 0.14
- ω^2Ka1 (inter-individual variability) [1, 2]: 0.00
- ω^2Ka2 (inter-individual variability) [1, 2]: 0.00
- ω^2Ka3 (inter-individual variability) [1, 2]: 1.74
- ω^2Tlag (inter-individual variability) [1, 2]: 0.23
- ω^2Vc/F (inter-individual variability) [1, 2]: 2.04
- dTlagdGender (quantitative correlation value between Tlag and gender) ([1]; final population PK model, Estimate, female = 1, male = 0): 0.73
- ε (residual error) ([1]; final population PK model, Estimate, log-additive error model): 0.37
- Vc/F estimate [1, 3]: 10.3 L
- Vp/F estimate [1, 3]: 11.5 L
- EC50 (gastric pH; Homo sapiens, read-out: EC50 (plasma rabeprazole concentration required to achieve 50% of the Emax)): 0.0516 µg/mL (≈ 0.143 µM)
- E0 (basal pH effect in the stomach that occurs without rabeprazole) (gastric pH): 2.50
- Emax (maximal effect of increasing gastric pH by plasma rabeprazole level) (gastric pH): 4.72
- γ (sigmoidicity factor) (gastric pH): 5.04
